Results published in patent publication US11986790B2, “Method for preparing microcapsules” (LG Household & Health Care Ltd., priority 2018, dated 2024).
In brackets after ≈: the same amount, converted by molar mass.

Assay: Water solubility of acrylic monomers
Type: physicochemical
Details: 25 °C
From the text: Specific examples of such acrylic monomers may include one or more selected from the group consisting of dipropyleneglycol diacrylate, diethyleneglycol diacrylate, and tetraethyleneglycol dimethacrylate, as shown in the following Table 1.

solubility (Table 1, room temperature of 25° C.): 52 to 53 mg/mL (≈ 157 to 160 mM) | solubility (stated in the example text for the monomer used): 52 mg/mL (≈ 157 mM)
Structure (SMILES): C=C(C)C(=O)OCCOCCOCCOCCOC(=O)C(=C)C [Tetraethylene glycol Dimethacrylate]
